Tested on: 885724-159-R-J1-PDC spheroids viability
Assay: Anticancer human tumor 885724-159-R-J1-PDC patient-derived pancreatic adenocarcinoma cell line growth inhibition [TAK]
Settings: spheroids with HUVEC and MSC; for IC50: curve of first compound; for viability, T/C: stronger effect = lower value; active = viability on the fitted dose curve at most 10% of control; inactive = the rest
Excerpt: Combinatorial screen of targeted agents with TAK-243 and ipatasertib in multi-cell type tumor spheroids
A high-throughput screen of multi-cell type tumor spheroids was designed to identify active combinations of targeted small molecules and TAK-243 or ipatasertib. Complex spheroids include a stromal component modeled by human endothelial cells (HUVEC) and fibroblasts modeled by human mesenchymal stem cells (MSCs). The concentration ranges selected for each drug and investigational agent were based upon clinically achievable concentrations if the clinical Cmax of the agent was known.
Compounds. The drugs and investigational agents: TAK-243 (785004), ipatasertib (767898), everolimus (733504), selumetinib (741078), bortezomib (756655), trametinib (758246), ixazomib (758254), vemurafenib (761431), dabrafenib (764134), sapanisertib (764658), alpelisib (765974), and copanlisib (816437), were obtained from the National Cancer Institute (NCI) Developmental Therapeutics Program Chemical Repository. The FDA-approved anticancer drug set is available from the NCI Developmental Therapeutics Program. […] The stock solutions were prepared in dimethyl sulfoxide (DMSO, Sigma-Aldrich, St. Louis, MO, cat. D2650) at 800-fold the tested concentration and stored at -70 degrees C prior to their use. All drugs and investigational agents were tested over a range starting from a high concentration at or near the clinical Cmax and decreasing in half-log increments. If the clinical Cmax for an agent had not been determined, the highest concentration tested was 10 microM.
NCI60 Cell Culture. NCI60 cell lines were obtained from the NCI Developmental Therapeutics Program Tumor Repository. For each lot of cells, the Repository performed Applied Biosystems AmpFLSTR Identifiler testing with PCR amplification to confirm consistency with the published Identifier STR profile for each cell line. Cells were kept in continuous culture for no more than 20 passages. The optimal seeding densities for each of the cell lines at each time point assessed were determined prior to performing the concentration response studies. Briefly, the NCI60 human tumor lines were grown as monolayers in RPMI 1640 medium supplemented with 10% FBS and 2 mmol/L L-glutamine.
An additional 2 lines were from the NCI60 cell line panel including melanomas, MALME-3M and SK-MEL-2. Pooled donor human umbilical vein endothelial cells (HUVEC, Lonza, cat. CC-2519) and human mesenchymal stem cells (hMSC, Lonza, cat. PT-2501) were purchased from Lonza (Walkersville, MD).
PDMR cell lines were grown in complete medium (DC medium): Dulbecco's modified Eagle's medium (DMEM)/F12 supplemented with 5% fetal bovine serum (FBS), 2 mM L-glutamine, 100 U/mL penicillin and 100 µg/ml streptomycin, 0.4 µg/ml hydrocortisone, 10 ng/ml epidermal growth factor (EGF) recombinant human protein, 24 µg/mL adenine, and 0.1 mg/mL primocin. During culture from frozen stock vials, PDMR cells were cultured in the same medium containing 10 µM Y-27632 (see Table 3). The PDCs were cultured in complete DMEM/F12 media without 10 microM Y-27632 dihydrochloride for at least two passages prior to the screen. The pooled donor HUVEC and hMSC were cultured in endothelial cell growth medium 2 (PromoCell, Heidelberg, Germany, cat. C-22011) and mesenchymal stem cell growth medium 2 (PromoCell, cat. C-28009), respectively. For all experiments, HUVEC and hMSC were used at passages </=5.
For the pre-screen, cell seeding densities were determined from a titration spanning the range from 5,000 to 313 cells per well. The mct-spheroids including 60% malignant cells, 25% HUVEC and 15% MSC dispensed as a mixture into U-bottom Ultra-Low Attachment 384-well plates (Corning, NY)
High-throughput Drug Combination Screening.
Prior to their inoculation into 384-well plates, malignant cells, HUVEC, and hMSC were removed from T flasks using TrypLE express (Thermo Fisher Scientific, cat. 12605036) and harvested by centrifugation for 5 min at 233 x g. […]

[1] = second compound 0.3 µM, first compound 0.316 µM
[2] = second compound 0.3 µM, first compound 1 µM
[3] = second compound 0.3 µM, first compound 3.16 µM
[4] = second compound 0.3 µM, first compound 10 µM
[5] = second compound 0.949 µM, first compound 0.316 µM
[6] = second compound 0.949 µM, first compound 1 µM
[7] = second compound 0.949 µM, first compound 3.16 µM
[8] = second compound 0.949 µM, first compound 10 µM
[9] = second compound 3 µM, first compound 0.316 µM
[10] = second compound 3 µM, first compound 1 µM
[11] = second compound 3 µM, first compound 3.16 µM
[12] = second compound 3 µM, first compound 10 µM
[13] = second compound 9.49 µM, first compound 0.316 µM
[14] = second compound 9.49 µM, first compound 1 µM
[15] = second compound 9.49 µM, first compound 3.16 µM
[16] = second compound 9.49 µM, first compound 10 µM
[17] = second compound 30 µM, first compound 0.316 µM
[18] = second compound 30 µM, first compound 1 µM
[19] = second compound 30 µM, first compound 3.16 µM
[20] = second compound 30 µM, first compound 10 µM
[21] = second compound 0.3 µM, first compound 0.0316 µM
[22] = second compound 0.3 µM, first compound 0.1 µM
[23] = second compound 0.949 µM, first compound 0.0316 µM
[24] = second compound 0.949 µM, first compound 0.1 µM
[25] = second compound 3 µM, first compound 0.0316 µM
[26] = second compound 3 µM, first compound 0.1 µM
[27] = second compound 9.49 µM, first compound 0.0316 µM
[28] = second compound 9.49 µM, first compound 0.1 µM
[29] = second compound 30 µM, first compound 0.0316 µM
[30] = second compound 30 µM, first compound 0.1 µM
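Note: spheroids exposed to drugs for seven days.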

CCCS(=O)(=O)Nc1ccc(F)c(C(=O)c2c[nH]c3ncc(-c4ccc(Cl)cc4)cc23)c1F + CC(C)NCC(C(=O)N1CCN(c2ncnc3c2C(C)CC3O)CC1)c1ccc(Cl)cc1
8750 nM: IC50 (second compound 9.49 µM)
> 100000 nM: IC50 (second compound 0.3 µM) | IC50 (second compound 0.949 µM)
< 316 nM: IC50 (second compound 30 µM)
inactive: viability, T/C [1] 79.3% | viability, T/C [2] 93.8% | viability, T/C [3] 104% | viability, T/C [4] 89.7% | viability, T/C (second compound 0.3 µM, first compound 31.6 µM) 99.7% | viability, T/C (second compound 0.3 µM, first compound 100 µM) 105% | viability, T/C [5] 66.1% | viability, T/C [6] 78.4% | viability, T/C [7] 76.2% | viability, T/C [8] 74.2% | viability, T/C (second compound 0.949 µM, first compound 31.6 µM) 34.7% | viability, T/C (second compound 0.949 µM, first compound 100 µM) 76.6% | viability, T/C [9] 66.4% | viability, T/C [10] 71.8% | viability, T/C [11] 67.1% | viability, T/C [12] 63.9% | viability, T/C (second compound 3 µM, first compound 31.6 µM) 34.2% | viability, T/C (second compound 3 µM, first compound 100 µM) 58.8% | viability, T/C [13] 58.5% | viability, T/C [14] 58.4% | viability, T/C [15] 58.6% | viability, T/C [16] 48.9% | viability, T/C (second compound 9.49 µM, first compound 31.6 µM) 13.4% | viability, T/C (second compound 9.49 µM, first compound 100 µM) 47.2% | viability, T/C [17] 37.5% | viability, T/C [18] 40.9% | viability, T/C [19] 36.6% | viability, T/C [20] 12.8% | viability, T/C (second compound 30 µM, first compound 31.6 µM) 3.55% | viability, T/C (second compound 30 µM, first compound 100 µM) 23.1%
25100 nM: IC50 (second compound 3 µM)

COc1c(OCCCN2CCOCC2)ccc2c3n(c(=NC(=O)c4cnc(N)nc4)nc12)CCN3 + CC(C)NCC(C(=O)N1CCN(c2ncnc3c2C(C)CC3O)CC1)c1ccc(Cl)cc1
active: viability, T/C [14] 10.2% | viability, T/C [30] 9.29% | viability, T/C [17] 6.93% | viability, T/C [18] 6.96%
inactive: viability, T/C (second compound 0.3 µM, first compound 0.00316 µM) 52.4% | viability, T/C (second compound 0.3 µM, first compound 0.01 µM) 41.2% | viability, T/C [21] 27.3% | viability, T/C [22] 19.4% | viability, T/C [1] 13.4% | viability, T/C [2] 12.3% | viability, T/C (second compound 0.949 µM, first compound 0.00316 µM) 32.9% | viability, T/C (second compound 0.949 µM, first compound 0.01 µM) 27.1% | viability, T/C [23] 20.3% | viability, T/C [24] 14.8% | viability, T/C [5] 12.1% | viability, T/C [6] 10.8% | viability, T/C (second compound 3 µM, first compound 0.00316 µM) 26.9% | viability, T/C (second compound 3 µM, first compound 0.01 µM) 20.4% | viability, T/C [25] 16% | viability, T/C [26] 13.7% | viability, T/C [9] 11.6% | viability, T/C [10] 11.2% | viability, T/C (second compound 9.49 µM, first compound 0.00316 µM) 22.8% | viability, T/C (second compound 9.49 µM, first compound 0.01 µM) 18.9% | viability, T/C [27] 13.8% | viability, T/C [28] 11.3% | viability, T/C [13] 9.95% | viability, T/C (second compound 30 µM, first compound 0.00316 µM) 18% | viability, T/C (second compound 30 µM, first compound 0.01 µM) 12.7% | viability, T/C [29] 9.8%
< 3.16 nM: IC50 (second compound 0.949 µM) | IC50 (second compound 3 µM) | IC50 (second compound 9.49 µM) | IC50 (second compound 30 µM)
4.05 nM: IC50 (second compound 0.3 µM)

Cc1nc(NC(=O)N2CCCC2C(N)=O)sc1-c1ccnc(C(C)(C)C(F)(F)F)c1 (stereo not given) + CC(C)NCC(C(=O)N1CCN(c2ncnc3c2C(C)CC3O)CC1)c1ccc(Cl)cc1
inactive: viability, T/C [21] 60.9% | viability, T/C [22] 46.4% | viability, T/C [1] 47.6% | viability, T/C [2] 41.5% | viability, T/C [3] 27.5% | viability, T/C [4] 19.4% | viability, T/C [23] 47.9% | viability, T/C [24] 44.2% | viability, T/C [5] 35.9% | viability, T/C [6] 27.8% | viability, T/C [7] 20.8% | viability, T/C [8] 14.3% | viability, T/C [25] 44.5% | viability, T/C [26] 43.5% | viability, T/C [9] 28.9% | viability, T/C [10] 21.3% | viability, T/C [11] 19% | viability, T/C [12] 12.7% | viability, T/C [27] 40% | viability, T/C [28] 35.2% | viability, T/C [13] 26.9% | viability, T/C [14] 19.4% | viability, T/C [15] 14.3% | viability, T/C [29] 28.8% | viability, T/C [30] 26.4% | viability, T/C [17] 19.6% | viability, T/C [18] 14.3% | viability, T/C [19] 10.7%
< 31.6 nM: IC50 (second compound 0.949 µM) | IC50 (second compound 3 µM) | IC50 (second compound 9.49 µM) | IC50 (second compound 30 µM)
active: viability, T/C [16] 9.85% | viability, T/C [20] 6.4%
154 nM: IC50 (second compound 0.3 µM)
